Series [1] concerns human induced pluripotent stem cell (iPSC)-derived brain endothelial-like cells (iBECs). Nature of the series: In vitro monolayer iBEC permeability (Transwell leakage) versus TEER. It is filed as in vitro ADME. Conditions: iBEC monolayers, all TEER levels. The procedure:
In Vitro BBB model: Differentiation of iBECs: The varied TEERs of iBECs were achieved during initial experiments that optimized seeding densities for differentiation of the GM25256 iPSC line. iBECs were differentiated from the GM25256 cell line using protocols described by Hollmann et al.. These resulting iBECs have been previously characterized to have many BEC traits including expression of high TEER levels and GLUT1, CLDN5, VE-Cad, PECAM-1, ZO-1, and OCLN proteins. Briefly, iPSCs were grown in E8 Medium on Matrigel in 6-well plates. When colonies were large and nearly touching, but prior to confluence, iPSCs were washed once with DPBS (Thermo Fisher Scientific) and incubated with Accutase (Stem Cell Technologies) for 3 min to yield a single cell suspension. Cells were collected via centrifugation, resuspended in E8, and counted using a hemocytometer. […] To assess barrier properties, TEER was measured 24 h after subculture using an EVOM2 voltohmeter with an EndOhm cup chamber (World Precision Instruments). […] TEER was measured approximately every 24 h thereafter. […]
Leakage was further assessed after 1–14 days post-subculture by placing in the input medium, consisting of HESFM + 1% BSA, 0.1 µCi ^14C-sucrose and 1 million CPM ^99mTc-DTPA or 3 million CPM ^99mTc-albumin per Transwell. […] Then, the radioactivity was counted in a Tricarb beta counter (Perkin Elmer) to measure ^14C-sucrose levels. […]

The subject of series [2] is BBB. Nature of the series: Multiple-time regression analysis of BBB uptake (Ki, Vi) in control and LPS-treated mice. It is filed as in vivo. An excerpt:
(§1) where t is the time between i.v. injection and blood draw, Cp is the level of radioactivity in serum (expressed as %Inj/ml), Cpt is the level of radioactivity in serum at time t, and τ is the dummy variable for time. Exposure time corrects for the clearance of the compound of interest from blood. The Y-intercept measures Vi (in units of µl/g), which is the vascular space and initial luminal binding at t = 0. Ki and Vi values are reported with their standard errors and the number of mice included in the linear portion of the regression curve. Slopes and intercepts were compared statistically with program in Prism 10.0 (GraphPad Inc, San Diego, CA). The percent of the injected dose that entered each g of brain (%Inj/g) was calculated after washout of the vascular space using the equation: […]

The subject of series [3] is BBB. Nature of the series: Single time point (10 min) brain/serum ratio after iv co-injection in control and LPS-treated mice. Conditions: for brain region permeability change: 10 min after iv injection, one-way ANOVA per region; for increase in brain/serum ratio (leakiness): three dose LPS vs control. An excerpt: (§2) Treatment with LPS: Male CD-1 mice were purchased from Charles River and studied at 8–12 weeks of age. All animal studies were approved by the Institutional Animal Care and Use Committee of the Veterans Affairs Puget Sound Health Care System, an IACUC approved institution, in compliance with the Association for Assessment and Accreditation of Laboratory Animal Care International. Lipopolysaccharide (LPS) derived from Salmonella enterica subtype typhimurium (#L6511) was purchased from Sigma Chemical Company. Mice were given IP injections of approximately 0.1 ml of saline at 0, 6, or 24 h with LPS included in no injections, in only the single 0 h injection, or in all (0, 6, and 24 h) injections at a dose of 3 mg/kg LPS. Mice were studied 28 h after the 0 h injection (4 h after the last injection).
(§3) After a specified time, the abdomen was opened and arterial blood obtained from the abdominal aorta and immediately the thorax was opened, the descending thoracic aorta was clamped, both jugular veins were severed, the left ventricle of the heart was cannulated, and 20 ml of cold LR-BSA perfused in 60 s via the left ventricle of the heart in order to wash out the vascular space of the brain. After this, brains were collected and counted in a gamma counter. […] Brain/serum ratios are expressed in units of µl/g.
(§4) In some studies, mice were studied only at 10 min after the jugular injection of radioactivity. For multiple-time regression analysis, mice were sacrificed at 1, 2, 5, 10, 15, and 30 min after the jugular injection.

The test system of series [4] is BBB. Nature of the series: Percent of the injected dose that entered each g of brain (%Inj/g), 10 min. Format: in vivo, mice. The following applies: for %Inj/g-brain: 10 min; for increase in %Inj/g-brain: three injections of LPS vs control.
Description: as §1
where cpm/g is the level of radioactivity in the brain tissue, g is the weight of the brain tissue, and cpmi is the amount of radioactivity injected intravenously.

Series [5] can be described thus: Single time point (10 min) brain/serum ratio after iv co-injection in control and LPS-treated mice. The following applies: male, CD-1, mouse, in vivo.
Description: as §2, §3, §4

Where [6] appears, read: 10 min, DTPA and albumin co-injected.

The source of these data is article PMC12838479 (Fluids and Barriers of the CNS, 2025).

By Kp is commonly meant tissue or fluid exposure divided by exposure in the circulation.

With `O=C(O)CN(CCN(CC(=O)O)CC(=O)O)CCN(CC(=O)O)CC(=O)O` (99mTc complex, metal not drawn) [DTPA, Diethylenetriaminepentaacetic acid], the “in vitro permeability (Pe) compared with simultaneously studied sucrose” value in series [1] is “essentially identical in vitro results”. Also, the results for the “Vi (vascular space and initial luminal binding)” value in the series on BBB [2] (control mice), with BBB [2] (single injection of LPS) and in the series with BBB [2] (three injections of LPS) were 1.62 ± 0.29 µL/g, 1.43 ± 0.334 µL/g and 1.487 ± 1.104 µL/g, respectively. Besides, the “mean percent increase in permeability of 4 sessions” value in the series on BBB [3] (3 dose injection of LPS, DTPA and sucrose co-injected) is listed as 79.2 +/- 16%. The results for the “brain region permeability change” value in the series on BBB [3] (3 injections of LPS) and with BBB [3] (single injection of LPS) were “all regions except the olfactory bulb had a significant increase” and “No brain region had a statistically significant increase in permeability”, respectively. Moreover, in the series on BBB [3] (10 min, DTPA and albumin co-injected, LPSx1 and LPSx3), the “detection of BBB disruption” value is reported as “showed disruption at the single dose of LPS as well as at the three doses”. Further, in the series with BBB [3] (10 min, simultaneous injection of DTPA and albumin, control mice), the “control brain/serum ratio relative to albumin” value was “about 5 fold”. Moreover, the “% change of brain/serum ratio relative to respective Control” value with BBB [3] (LPSx1, Day 1) is reported as 12%; with BBB [3] (LPSx1, Day 2) it was -0.025%; in the series with BBB [3] (LPSx1, Repeat Day 2), 29%; in the series with BBB [3] (LPSx3, Day 1), 79%; with BBB [3] (LPSx3, Day 2) it was 57%. In the series with BBB [3] (one injection of LPS), the “BBB disruption, combined data of 4 sessions” value is “did not disrupt the BBB”. Further, the “increase in brain/serum ratio (leakiness)” value in the series on BBB [3] (setting [6]) stood at 136%. Further, the “increase in permeation, combined data of 4 sessions” value in the series on BBB [3] (three injections of LPS) is recorded as 69%. Also, the “%Inj/g-brain” value came to 0.035 %Inj/g-brain with BBB [4] (control mice) and 0.0760 %Inj/g-brain in the series on BBB [4] (three injections of LPS). The “increase in %Inj/g-brain” value in the series with BBB [4] is on record as 117%.

As for `OC[C@H]1O[C@@](CO)(O[C@H]2O[C@H](CO)[C@@H](O)[C@H](O)[C@H]2O)[C@@H](O)[C@@H]1O` [sucrose], the results for the “Vi (vascular space and initial luminal binding)” value with BBB [2] (control mice), in the series with BBB [2] (single injection of LPS) and in the series with BBB [2] (three injections of LPS) were 8.43 ± 1.26 µL/g, 16.2 µL/g and 14.5 ± 4.82 µL/g, respectively. Also, the partition ratio (Kp) at 10 min in series [5] fell in the range of 0.00402 to 0.00518.

With bovine serum albumin, in series [1], the “in vitro permeability (Pe) compared with simultaneously studied sucrose” value is reported as “much lower penetration than sucrose at all TEER levels”. The entries for the “Vi (vascular space and initial luminal binding)” value in the series on BBB [2] (control mice), in the series on BBB [2] (single injection of LPS) and with BBB [2] (three injections of LPS) were 0.245 ± 0.0431 µL/g, 0.197 ± 0.0438 µL/g and 0.325 ± 0.0893 µL/g, respectively. In the series on BBB [3] (setting [6]), the “increase in brain/serum ratio (leakiness)” value is on record as 111%. The entries for the “%Inj/g-brain” value with BBB [4] (control mice) and with BBB [4] (three injections of LPS) were 0.026 %Inj/g-brain and 0.0490 %Inj/g-brain, respectively. In the series with BBB [4], the “increase in %Inj/g-brain” value worked out at 81%.
